In US9238697B2, “Polymeric materials and methods” (The Regents of the University of California, priority 2005, dated 2016) one finds solubility data, which are given here for 1 compound.

Structures are written as SMILES. Non-standard residues stand in square brackets, D forms with d. Residues, ends and D or L forms follow the SMILES beside them. ξ: configuration not given here. *: point of attachment. Boc = CC(C)(C)OC(=O)*; ξK = NCCCCC(N)C(=O)O

The data set can be described thus: Solubility of peptide monomer. In kind it is physicochemical. The following applies: water, or water/solvent mixtures. The method, then: As described further below, Poly 1-3 were tested for gene delivery applications. As contemplated structures are highly adaptable, structural variations can be made with relative ease to optimize gene transfection levels while maintaining relatively low levels of cytotoxicity. Initial manipulations were performed involving lengthening the peptidyl monomer sequence with additional L-lysine residues to thereby increase the charge density of the polymer overall and to thereby offer stronger DNA binding. It should be recognized that where increased charge density improves the gene transfectability of the polymer system, more residues can be added until an optimal length is found. […] For this reason, solution phase polymerizations were attempted to yield small polymer chains and cyclic structures. One example of cyclic structures is given in Structure VI below.

Turning to `COC(=O)[C@H](CCCCN)NC(=O)C(CCCCNC(=O)OC(C)(C)C)NC(=O)C(CCCCNC(=O)OC(C)(C)C)NC(=O)C(CCCCNC(=O)OC(C)(C)C)NC(=O)[C@H](CCCCN)NC(=O)OC(C)(C)C` (stereo partly shown) [pentalysine monomer] (Boc-K[ξK](Boc)[ξK](Boc)[ξK](Boc)K-OMe), the solubility result was “insoluble”.
